Measurements: patent publication US9604996B2 (Bayer Pharma Aktiengesellschaft, priority 2013, dated 2017)

These compounds were tested against T1, human adenosine A2b receptor (Homo sapiens, UniProt P29275) (assay: Cellular reporter gene (CRE-luciferase) A2b receptor antagonist assay in recombinant CHO-K1 cells stimulated with NECA). Conditions: recombinant CHO-K1 cell line, co-incubation with EC50 concentration of NECA, 3 hours, in some cases means, rounded to two significant digits.
T1 construct: expressed in transfected cells; host or cells: CHO-K1 (Chinese Hamster Ovary) with CRE-luciferase reporter
T1 sequence (P29275 1-332): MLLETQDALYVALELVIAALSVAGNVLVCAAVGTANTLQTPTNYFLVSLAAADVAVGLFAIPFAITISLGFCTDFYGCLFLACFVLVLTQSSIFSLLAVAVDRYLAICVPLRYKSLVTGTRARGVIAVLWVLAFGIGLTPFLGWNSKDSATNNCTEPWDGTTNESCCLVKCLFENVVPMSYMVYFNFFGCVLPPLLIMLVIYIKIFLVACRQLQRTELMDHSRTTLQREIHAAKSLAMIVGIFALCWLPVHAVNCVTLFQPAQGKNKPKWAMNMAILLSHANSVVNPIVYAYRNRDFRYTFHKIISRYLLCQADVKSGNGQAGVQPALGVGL
Assay type: cell-based
Experimental: B-1. Cellular In Vitro Tests for Determining A2b Receptor Activity and Adenosine Receptor Selectivity
The identification of selective antagonists of the human adenosine A2b receptor and the quantification of the efficacy and selectivity of the compounds according to the invention was carried out with the aid of recombinant cell lines for the human adenosine receptors A1, A2a, A2b and A3. These cell lines were originally derived from an ovarepithelial cell of the hamster (Chinese Hamster Ovary, CHO-K1, American Type Culture Collection, Manassas, Va. 20108, USA). In addition to the respective recombinantly expressed adenosine receptor for testing the efficacy at the A1, A2a and A2b receptors, the cell lines contain a reporter gene construct where expression of the firefly (Photinus pyralis) luciferase is under the control of a promoter which can be activated via intracellular signal cascades by stimulation of the receptors with the (not subtype-selective) adenosine receptor agonist NECA (5′-N-ethylcarboxamidoadenosine) [S. J. Hill, J. G. Baker, S. Rhees, Curr. Opin. Pharmacol. 1, 526-532 (2001)].
In the case of the A2a and A2b cell lines, this is a minimal promoter having a plurality of cAMP-responsive elements (CRE). Stimulation of the Gs coupled A2b or A2a receptors by NECA ultimately leads, via formation of cAMP, to CRE-dependent induction of luciferase expression, which is detected 3 hours after the start of the incubation with NECA using a detection solution in a suitable luminometer. For testing the antagonists, initially, in a pre-experiment, the concentration of NECA which, at the test day in question, results in half-maximum stimulation of luciferase expression (EC50 concentration) is determined By joint incubation of this EC50 concentration of NECA with the substances to be tested, it is possible to determine their antagonistic activity.

Row | SMILES | IC50 [nM]
1 | CCn1c(=O)c2c(C)c(C(=O)N3CCNC(=O)C3C)sc2n(CCC(F)(F)F)c1=O (racemic) [Example 39, 3-Ethyl-5-methyl-6-[(2-methyl-3-oxopiperazin-1-yl)carbonyl]-1-(3,3,3-trifluoropropyl)thieno[2,3-d]pyrimidine-2,4(1H,3H)-dione (racemate)] | 220
2 | CCC1C(=O)NCCN1C(=O)c1sc2c(c1C)c(=O)n(CC)c(=O)n2CCC(F)(F)F (racemic) [Example 40, 3-Ethyl-6-[(2-ethyl-3-oxopiperazin-1-yl)carbonyl]-5-methyl-1-(3,3,3-trifluoropropyl)thieno[2,3-d]pyrimidine-2,4(1H,3H)-dione (racemate)] | 230
3 | Cc1c(C(=O)N2CCC(O)CC2)sc2c1c(=O)n(CC(C)c1ccccc1)c(=O)n2CCC(F)(F)F (racemic) [Example 43, 6-[(4-Hydroxypiperidin-1-yl)carbonyl]-5-methyl-3-(2-phenylpropyl)-1-(3,3,3-trifluoropropyl)thieno[2,3-d]pyrimidine-2,4(1H,3H)-dione (racemate)] | 6.3
4 | COC(Cn1c(=O)c2c(C)c(C(=O)N3CCC(O)CC3)sc2n(CCC(F)(F)F)c1=O)c1ccccc1 (racemic) [Example 46, 6-[(4-Hydroxypiperidin-1-yl)carbonyl]-3-(2-methoxy-2-phenylethyl)-5-methyl-1-(3,3,3-trifluoropropyl)thieno[2,3-d]pyrimidine-2,4(1H,3H)-dione (racemate)] | 7.9
5 | CCn1c(=O)c2c(C)c(C(=O)N3CCC(O)CC3)sc2n(CC2CC2(F)F)c1=O (racemic) [Example 59, 1-[(2,2-Difluorocyclopropyl)methyl]-3-ethyl-6-[(4-hydroxypiperidin-1-yl)carbonyl]-5-methylthieno[2,3-d]pyrimidine-2,4(1H,3H)-dione (racemate)] | 370
6 | COC(C)Cn1c(=O)c2c(C)c(C(=O)N3CCC(O)CC3)sc2n(CCC(F)(F)F)c1=O (racemic) [Example 65, 6-[(4-Hydroxypiperidin-1-yl)carbonyl]-3-(2-methoxypropyl)-5-methyl-1-(3,3,3-trifluoropropyl)thieno[2,3-d]pyrimidine-2,4(1H,3H)-dione (racemate)] | 96
7 | COC(Cn1c(=O)c2c(C)c(C(=O)N3CCC(O)CC3)sc2n(CCC(F)(F)F)c1=O)C(F)(F)F (racemic) [Example 66, 6-[(4-Hydroxypiperidin-1-yl)carbonyl]-5-methyl-3-(3,3,3-trifluoro-2-methoxypropyl)-1-(3,3,3-trifluoropropyl)thieno[2,3-d]pyrimidine-2,4(1H,3H)-dione (racemate)] | 280
8 | COC(Cn1c(=O)c2c(C)c(C(=O)N3CCC(O)(CO)CC3)sc2n(CCC(F)(F)F)c1=O)C(F)(F)F (racemic) [Example 81, 6-{[4-Hydroxy-4-(hydroxymethyl)piperidin-1-yl]carbonyl}-5-methyl-3-(3,3,3-trifluoro-2-methoxypropyl)-1-(3,3,3-trifluoropropyl)thieno[2,3-d]pyrimidine-2,4(1H,3H)-dione] | 170
9 | Cc1c(C(=O)N2CCC(O)CC2)sc2c1c(=O)n(CC(c1ccccc1)C(F)(F)F)c(=O)n2CCC(F)(F)F (racemic) [Example 104, 6-[(4-Hydroxypiperidin-1-yl)carbonyl]-5-methyl-3-(3,3,3-trifluoro-2-phenylpropyl)-1-(3,3,3-trifluoropropyl)thieno[2,3-d]pyrimidine-2,4(1H,3H)-dione] | 9.1
10 | Cc1c(C(=O)N2CCC(O)CC2)sc2c1c(=O)n(CC(C)(O)c1ccccc1)c(=O)n2CCC(F)(F)F (racemic) [Example 105, 3-(2-Hydroxy-2-phenylpropyl)-6-[(4-hydroxypiperidin-1-yl)carbonyl]-5-methyl-1-(3,3,3-trifluoropropyl)thieno[2,3-d]pyrimidine-2,4(1H,3H)-dione] | 69
11 | Cc1c(C(=O)N2CCC(O)CC2)sc2c1c(=O)n(CC(O)c1ccccc1)c(=O)n2CCC(F)(F)F (single isomer, unassigned) [Example 100, 3-(2-Hydroxy-2-phenylethyl)-6-[(4-hydroxypiperidin-1-yl)carbonyl]-5-methyl-1-(3,3,3-trifluoropropyl)thieno[2,3-d]pyrimidine-2,4(1H,3H)-dione] | 29
12 | Cc1c(C(=O)N2CCC(O)CC2)sc2c1c(=O)n(CC(O)c1ccccc1)c(=O)n2CCC(F)(F)F (single isomer, unassigned) [Example 101, 3-(2-Hydroxy-2-phenylethyl)-6-[(4-hydroxypiperidin-1-yl)carbonyl]-5-methyl-1-(3,3,3-trifluoropropyl)thieno[2,3-d]pyrimidine-2,4(1H,3H)-dione] | 1200
13 | Cc1c(C(=O)N2CCC(O)CC2)sc2c1c(=O)n(CC(F)c1ccccc1)c(=O)n2CCC(F)(F)F (single isomer, unassigned) [Example 102, 3-(2-Fluoro-2-phenylethyl)-6-[(4-hydroxypiperidin-1-yl)carbonyl]-5-methyl-1-(3,3,3-trifluoropropyl)thieno [2,3-d]pyrimidine-2,4(1H,3H)-dione] | 3.6
14 | Cc1c(C(=O)N2CCC(O)CC2)sc2c1c(=O)n(CC(F)c1ccccc1)c(=O)n2CCC(F)(F)F (single isomer, unassigned) [Example 103, 3-(2-Fluoro-2-phenylethyl)-6-[(4-hydroxypiperidin-1-yl)carbonyl]-5-methyl-1-(3,3,3-trifluoropropyl)thieno[2,3-d]pyrimidine-2,4(1H,3H)-dione] | 16

Other lines, results leading:

Row | IC50 [nM] | SMILES
15 | 200 | CCn1c(=O)c2c(C)c(C(=O)N3CCC(O)C(O)C3)sc2n(CCC(F)(F)F)c1=O (racemic) [Example 116, 6-[(3,4-Dihydroxypiperidin-1-yl)carbonyl]-3-ethyl-5-methyl-1-(3,3,3-trifluoropropyl)thieno [2,3-d]pyrimidine-2,4(1H,3H)-dione]
16 | 210 | CCn1c(=O)c2c(C)c(C(=O)N3CCC(O)C(O)C3)sc2n(CCC(F)(F)F)c1=O (racemic) [Example 119, 6-[(3,4-Dihydroxypiperidin-1-yl)carbonyl]-3-ethyl-5-methyl-1-(3,3,3-trifluoropropyl)thieno [2,3-d]pyrimidine-2,4(1H,3H)-dione]
17 | 97 | CCn1c(=O)c2c(C(C)F)c(C(=O)N3CCC(O)CC3)sc2n(CCC(F)(F)F)c1=O (racemic) [Example 145, 3-Ethyl-5-(1-fluoroethyl)-6-[(4-hydroxypiperidin-1-yl)carbonyl]-1-(3,3,3-trifluoropropyl)thieno[2,3-d]pyrimidine-2,4(1H,3H)-dione]
18 | 40 | CCn1c(=O)c2c(C(C)F)c(C(=O)N3CCC(C)(O)CC3)sc2n(CCC(F)(F)F)c1=O (racemic) [Example 146, 3-Ethyl-5-(1-fluoroethyl)-6-[(4-hydroxy-4-methylpiperidin-1-yl)carbonyl]-1-(3,3,3-trifluoropropyl)thieno[2,3-d]pyrimidine-2,4(1H,3H)-dione]
19 | 100 | CCn1c(=O)c2c(C(C)F)c(C(=O)N3CCNC(=O)C3)sc2n(CCC(F)(F)F)c1=O (racemic) [Example 147, 3-Ethyl-5-(1-fluoroethyl)-6-[(3-oxopiperazin-1-yl)carbonyl]-1-(3,3,3-trifluoropropyl)thieno[2,3-d]pyrimidine-2,4(1H,3H)-dione]
20 | 45 | COC(Cn1c(=O)c2c(C)c(C(=O)N3CCC(O)CC3)sc2n(CCC(F)(F)F)c1=O)C(F)(F)F (single isomer, unassigned) [Example 107, 6-[(4-Hydroxypiperidin-1-yl)carbonyl]-5-methyl-3-(3,3,3-trifluoro-2-methoxypropyl)-1-(3,3,3-trifluoropropyl)thieno[2,3-d]pyrimidine-2,4(1H,3H)-dione]
21 | 580 | COC(Cn1c(=O)c2c(C)c(C(=O)N3CCC(O)CC3)sc2n(CCC(F)(F)F)c1=O)C(F)(F)F (single isomer, unassigned) [Example 108, 6-[(4-Hydroxypiperidin-1-yl)carbonyl]-5-methyl-3-(3,3,3-trifluoro-2-methoxypropyl)-1-(3,3,3-trifluoropropyl)thieno[2,3-d]pyrimidine-2,4(1H,3H)-dione]
22 | 110 | COC(Cn1c(=O)c2c(C)c(C(=O)N3CCC(O)(CO)CC3)sc2n(CCC(F)(F)F)c1=O)C(F)(F)F (single isomer, unassigned) [Example 114, 6-{[4-Hydroxy-4-(hydroxymethyl)piperidin-1-yl]carbonyl}-5-methyl-3-(3,3,3-trifluoro-2-methoxypropyl)-1-(3,3,3-trifluoropropyl)thieno[2,3-d]pyrimidine-2,4(1H,3H)-dione]
